Test results as given in US5010005A, “Bio-oxidation of high alcohols in non-aqueous reaction media” (priority 1989, dated 1991).
Converted amounts (≈) assume the structure as drawn. Where two headings read alike, the source gives them in different places.

Key:
[1] = Partitioning of benzyl alcohol and benzaldehyde between 0.1 M phosphate buffer and solvent; type: physicochemical
Method: The partitioning of benzyl alcohol and benzaldehyde between 0.1 M phosphate buffer and each solvent used were measured as follows: benzyl alcohol (10 g/L) and benzaldehyde (10 g/L) were dissolved in each of the solvents of interest. Ten millilitres of each solvent were then dispensed into a test tube containing 10 ml of 0.1 M phosphate buffer (pH 8). The tubes were capped, vortexed, and the mixture was allowed to equilibrate for 1 hr at 30° C. Both phases were then assayed for benzaldehyde and benzyl alcohol as described above. […]

Solubility in water = type: physicochemical
alcohol oxidase = biological target: T1, alcohol oxidase (Komagataella phaffii, UniProt P04842); assay: Inhibition of alcohol oxidase by benzaldehyde; type: biochemical, Pichia pastoris
T1 construct: purchased Provesta Corp. (Bartlesville, Oklahoma)
T1 sequence (P04842 2-663 limits assumed): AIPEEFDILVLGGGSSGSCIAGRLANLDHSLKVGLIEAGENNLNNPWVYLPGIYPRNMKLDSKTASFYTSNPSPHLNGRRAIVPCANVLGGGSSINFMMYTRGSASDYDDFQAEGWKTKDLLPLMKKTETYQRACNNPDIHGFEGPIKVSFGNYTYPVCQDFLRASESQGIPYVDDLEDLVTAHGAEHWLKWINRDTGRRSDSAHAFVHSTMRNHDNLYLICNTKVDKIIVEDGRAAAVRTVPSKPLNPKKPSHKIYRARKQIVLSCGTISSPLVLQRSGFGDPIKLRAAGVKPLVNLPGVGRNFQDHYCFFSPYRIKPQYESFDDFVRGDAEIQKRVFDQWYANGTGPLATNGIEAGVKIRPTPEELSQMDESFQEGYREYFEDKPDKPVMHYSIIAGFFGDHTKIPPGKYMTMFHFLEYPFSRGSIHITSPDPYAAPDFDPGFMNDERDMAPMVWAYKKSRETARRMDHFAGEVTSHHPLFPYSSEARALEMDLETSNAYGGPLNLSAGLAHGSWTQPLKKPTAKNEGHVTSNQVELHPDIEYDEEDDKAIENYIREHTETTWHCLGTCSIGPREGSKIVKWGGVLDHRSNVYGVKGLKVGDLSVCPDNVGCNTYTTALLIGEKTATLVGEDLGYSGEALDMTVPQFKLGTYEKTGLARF
Source text: Similar potent inhibition of yeast alcohol dehydrogenase by aliphatic and aromatic aldehydes including benzaldehyde has been reported (W.R. Bowen et al, J. Chem. Tech. Biotechnol. 36: 191-196, 1986). In two phase systems, the degree to which alcohol oxidase is inhibited by benzaldehyde is controlled by the concentration of the inhibitor, the concentration of the enzyme, the solvent chosen as a reaction fluid, and on the volumetric ratio of the two phases present. The effect of the first two factors is obvious, however the latter two parameters play an important role in determining the effective concentration of the inhibitor; that concentration to which the biocatalyst is exposed, potentially causing inhibition. Benzaldehyde partitions differently between the two phases depending on the solvent chosen. For example, using toluene as an extractant benzaldehyde was efficiently stripped from the aqueous phase (Table 2) and was, therefore, less able to inhibit alcohol oxidase. It is possible that this would result in improved yields over extended reaction times, despite the sacrifice in terms of initial reaction rate.

## O=Cc1ccccc1 [benzaldehyde]
[1]; Ether / 0.1 M phosphate buffer pH 8, 30° C.
  Partition Coefficient (Corg /Caq): 69.4
[1]; Ethylacetate / 0.1 M phosphate buffer pH 8, 30° C.
  Partition Coefficient (Corg /Caq): 62.0
[1]; Hexane / 0.1 M phosphate buffer pH 8, 30° C.
  Partition Coefficient (Corg /Caq): 15.4
[1]; Toluene / 0.1 M phosphate buffer pH 8, 30° C.
  Partition Coefficient (Corg /Caq): 100
Solubility in water
  solubility: ~3000 µg/mL (≈ 28.3 mM)
Alcohol oxidase
  Inhibition of alcohol oxidase: very strongly inhibited
Alcohol oxidase; listed as Benzaldehyde
  Inhibition of alcohol oxidase: extremely potent inhibitor
